Source: ChEMBL document CHEMBL2407058, “Design, Synthesis, and Antiplasmodial Activity of Hybrid Compounds Based on (2R,3S)-N-Benzoyl-3-phenylisoserine” (ACS Med Chem Lett, 2013)

How the values were obtained:
L6 = experiment: Cytotoxicity against rat L6 cells after 70 hrs by Alamar Blue assay; format: cell-based; details: L6, 70 h
Plasmodium falciparum [1] = experiment: Antiplasmodial activity against erythrocytic stage of chloroquine-resistant Plasmodium falciparum IndoChina W2 infected in human A positive RBC after 48 hrs by [3H]hypoxanthine incorporation assay; format: functional, organism-based
Plasmodium falciparum [2] = experiment: Antiplasmodial activity against erythrocytic stage of multidrug-resistant Plasmodium falciparum Thailand K1 infected in human A positive RBC after 48 hrs by [3H]hypoxanthine incorporation assay; format: functional, organism-based
[3] = Selectivity index, ratio of IC50 for rat L6 cells to IC50 for erythrocytic stage of chloroquine-resistant Plasmodium falciparum IndoChina W2; format: toxicity, cell-based; details: read-out: Ratio IC50
Plasmodium falciparum [4] = experiment: Ratio of dihydroartemisinin IC50 to compound IC50 for erythrocytic stage of chloroquine-resistant Plasmodium falciparum IndoChina W2; format: functional

| SMILES | IC50 (L6) [nM] | IC50 (Plasmodium falciparum [1]) [nM] | IC50 (Plasmodium falciparum [2]) [nM] | selectivity ratio [3] | Ratio IC50 (Plasmodium falciparum [4]) |
| --- | --- | --- | --- | --- | --- |
| O=C(N[C@@H](c1ccccc1)[C@@H](O)C(=O)O)c1ccccc1 | > 100000 | > 10000 | > 10000 |  |  |
| OCc1cccc(Nc2ccnc3cc(Cl)ccc23)c1 | 21100 | 300 | 300 | 70.4 |  |
| O=C(N[C@@H](c1ccccc1)[C@@H](O)C(=O)NCCNc1ccnc2cc(Cl)ccc12)c1ccccc1 | 15100 | 560 | 360 | 27 |  |
| O=C(N[C@@H](c1ccccc1)[C@@H](O)C(=O)NCCCNc1ccnc2cc(Cl)ccc12)c1ccccc1 | 28300 | 480 | 1000 | 59 |  |
| [N-]=[N+]=NCCCNc1ccnc2cc(Cl)ccc12 | 9480 | 170 | 330 | 55.8 |  |
| [N-]=[N+]=NCc1cccc(Nc2ccnc3cc(Cl)ccc23)c1 | 76600 | 550 | 1110 | 139 |  |
| [N-]=[N+]=NCc1ccccc1Nc1ccnc2cc(Cl)ccc12 |  | 220 |  |  |  |
| O=C(N[C@@H](c1ccccc1)[C@@H](O)C(=O)NCc1cn(CCNc2ccnc3cc(Cl)ccc23)nn1)c1ccccc1 | 85600 | 2710 | 1110 | 31.6 |  |
| O=C(N[C@@H](c1ccccc1)[C@@H](O)C(=O)NCc1cn(CCCNc2ccnc3cc(Cl)ccc23)nn1)c1ccccc1 | 88200 | 1690 | 390 | 52.2 |  |
| O=C(N[C@@H](c1ccccc1)[C@@H](O)C(=O)NCc1cn(Cc2cccc(Nc3ccnc4cc(Cl)ccc34)c2)nn1)c1ccccc1 | 67900 | 280 | 2440 | 242 |  |
| O=C(N[C@@H](c1ccccc1)[C@@H](O)C(=O)NCc1cn(Cc2ccccc2Nc2ccnc3cc(Cl)ccc23)nn1)c1ccccc1 | 30100 | 1050 | 3240 | 28.6 |  |
| CC(=O)O[C@@H](C(=O)O)[C@@H](NC(=O)c1ccccc1)c1ccccc1 | > 100000 | > 10000 | > 10000 |  |  |
| C[C@H]1[C@H](OC(=O)[C@H](O)[C@@H](NC(=O)c2ccccc2)c2ccccc2)O[C@@H]2O[C@@]3(C)CC[C@H]4[C@H](C)CC[C@@H]1[C@@]24OO3 | 1030 | 5 | 0.7 | 206 | 3 |
| CC(=O)O[C@@H](C(=O)O[C@@H]1O[C@@H]2O[C@@]3(C)CC[C@H]4[C@H](C)CC[C@@H]([C@H]1C)[C@@]24OO3)[C@@H](NC(=O)c1ccccc1)c1ccccc1 | 830 | 5 | 0.5 | 166 | 3 |
| OCc1ccccc1Nc1ccnc2cc(Cl)ccc12 |  | 40 |  |  |  |
| O=C(N[C@@H](c1ccccc1)[C@@H](O)C(=O)OCCNc1ccnc2cc(Cl)ccc12)c1ccccc1 |  | 390 |  |  |  |
| CC(=O)O[C@@H](C(=O)OCCNc1ccnc2cc(Cl)ccc12)[C@@H](NC(=O)c1ccccc1)c1ccccc1 | 25200 | 220 | 250 | 114 |  |
| O=C(N[C@@H](c1ccccc1)[C@@H](O)C(=O)OCCCNc1ccnc2cc(Cl)ccc12)c1ccccc1 |  | 130 |  |  |  |
| CC(=O)O[C@@H](C(=O)OCCCNc1ccnc2cc(Cl)ccc12)[C@@H](NC(=O)c1ccccc1)c1ccccc1 | 24200 | 160 | 220 | 151 |  |
| OCCNc1ccnc2cc(Cl)ccc12 |  | 550 |  |  |  |
| OCCCNc1ccnc2cc(Cl)ccc12 |  | 410 |  |  |  |
| [N-]=[N+]=NCCNc1ccnc2cc(Cl)ccc12 |  | 290 |  |  |  |
| C[C@H]1[C@@H](O)O[C@@H]2O[C@@]3(C)CC[C@H]4[C@H](C)CC[C@@H]1[C@@]24OO3 (mixture of isomers) [ARTENIMOL] | 730 | 3 | 1.8 | 243 |  |
| C[C@@H]1CC[C@H]2[C@@H](C)C(=O)O[C@@H]3O[C@@]4(C)CC[C@@H]1[C@]32OO4 [ARTEMISININ] |  | 15 | 3.2 |  |  |
| COc1cc([C@@H]2c3cc4c(cc3[C@H](O)[C@H]3COC(=O)[C@H]23)OCO4)cc(OC)c1OC [PODOFILOX] | 20 |  |  |  |  |
